# Results as given in patent US20030083469A1, “Allosteric control of nuclear hormone receptors” (The Salk Institute for Biological Studies, priority 1995, published 2003).
# Assays:
# [1] = target: T1, T3R-RXR heterodimers (Homo sapiens, UniProt P10828+P19793); test: Transient transfection analysis of T3R-RXR heterodimers (TK-LUC reporter, CV-1 cells); type: cell-based
# T1 construct: transient transfection analysis of full-length Nurrl and/or RXR; expressed in transfected cells; host or cells: CV-1
# T1 sequence (P10828 1-461): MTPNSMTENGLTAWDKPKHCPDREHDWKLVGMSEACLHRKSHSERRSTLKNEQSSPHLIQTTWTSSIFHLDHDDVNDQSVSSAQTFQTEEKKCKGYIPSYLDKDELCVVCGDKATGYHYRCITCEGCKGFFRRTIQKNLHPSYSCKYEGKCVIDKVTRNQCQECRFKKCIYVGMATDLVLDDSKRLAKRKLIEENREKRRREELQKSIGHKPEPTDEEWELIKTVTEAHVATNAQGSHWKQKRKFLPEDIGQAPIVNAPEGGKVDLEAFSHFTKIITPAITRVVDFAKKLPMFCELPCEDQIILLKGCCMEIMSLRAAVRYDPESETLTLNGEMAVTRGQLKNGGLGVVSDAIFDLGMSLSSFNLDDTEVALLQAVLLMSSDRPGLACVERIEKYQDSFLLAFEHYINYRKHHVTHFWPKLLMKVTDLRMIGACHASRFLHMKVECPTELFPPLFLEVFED
# T1 sequence (P19793 1-462): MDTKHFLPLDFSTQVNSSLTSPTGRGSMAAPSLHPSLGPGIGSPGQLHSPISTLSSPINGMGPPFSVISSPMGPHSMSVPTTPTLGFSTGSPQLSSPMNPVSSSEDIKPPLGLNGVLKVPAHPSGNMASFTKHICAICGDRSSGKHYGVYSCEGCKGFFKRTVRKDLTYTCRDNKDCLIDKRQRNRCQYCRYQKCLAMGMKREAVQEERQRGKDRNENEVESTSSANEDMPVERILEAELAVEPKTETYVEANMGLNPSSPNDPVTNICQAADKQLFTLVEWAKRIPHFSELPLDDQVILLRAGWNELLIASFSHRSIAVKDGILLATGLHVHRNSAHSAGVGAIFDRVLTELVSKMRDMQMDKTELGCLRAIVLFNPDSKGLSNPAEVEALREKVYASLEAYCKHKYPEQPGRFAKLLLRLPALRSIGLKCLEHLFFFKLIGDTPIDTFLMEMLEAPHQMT
# Protocol: (§1) One day prior to transfection, cells were plated to 50-80% confluence using phenol-red free DMEM-FBS. Cells were transfected by lipofection using N-{2-(2,3)-dioleoyloxy)propyl-N,N,N-trimethyl ammonium methyl sulfate} according to the manufacturer's instructions (DOTAP, Boehringer Mannheim).
# Since T3R and RAR function as heterodimers with RXR, RXR responsiveness was examined in the context of RXR-T3R and RXR-RAR heterodimers. Attention is directed to FIG. 2, wherein transient transfection analysis of T^3R-RXR and RAR-RXR heterodimers is described. Reporter constructs employed contain the HRE indicated in the figure, cloned upstream of the TK-LUC reporter. In the left panel of the figure, CV-1 cells were transfected with the following plasmids: HRE×2 - TK-LUC (300 ng/10^5 cells), CMX-hT3Rβ (20 ng/10^5 cells), CMX-hRXRα (20 ng/10^5 cells) and the internal control CMX-βgal (500 ng/10^5 cells) .
# [2] = target: T2, GAL-RXR+T3R LBD (Homo sapiens, UniProt P10828+P19793); test: Transient transfection analysis of GAL-RXR LBD in the presence of T3R LBD; type: cell-based
# T2 construct: human RXRα LBD (Glu 203 - Thr 462); human T3Rβ LBD (Leu 173 - Asp 456); expressed in transfected cells; host or cells: CV-1
# T2 sequence (P19793 203-462 limits assumed): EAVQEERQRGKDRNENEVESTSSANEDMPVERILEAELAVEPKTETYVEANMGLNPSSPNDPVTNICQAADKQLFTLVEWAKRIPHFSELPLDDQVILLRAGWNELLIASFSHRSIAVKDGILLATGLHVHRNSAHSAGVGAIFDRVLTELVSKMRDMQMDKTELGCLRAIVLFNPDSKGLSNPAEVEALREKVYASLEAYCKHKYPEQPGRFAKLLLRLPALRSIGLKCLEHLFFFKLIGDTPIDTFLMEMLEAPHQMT
# T2 sequence (P10828 178-461 limits assumed): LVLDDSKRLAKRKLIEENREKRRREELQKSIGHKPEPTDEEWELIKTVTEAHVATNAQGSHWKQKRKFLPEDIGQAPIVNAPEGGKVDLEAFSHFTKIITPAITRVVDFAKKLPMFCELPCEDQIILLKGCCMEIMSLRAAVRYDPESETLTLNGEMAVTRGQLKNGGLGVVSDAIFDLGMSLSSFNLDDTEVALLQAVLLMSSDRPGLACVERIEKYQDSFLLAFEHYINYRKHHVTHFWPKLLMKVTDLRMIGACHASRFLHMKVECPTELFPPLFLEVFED
# Protocol: as §1
# Normalized luciferase activity was determined and plotted as fold-activation relative to untreated cells.
# [3] = target: T3, RXR-T3R heterodimer (Homo sapiens, UniProt P19793); test: Ligand binding assay with RXR-T3R heterodimer; parameters: species or system human GST-hRXRα, chicken T3Rα1
# T3 construct: made in house
# T3 sequence (P19793 1-462): T1 sequence (P19793 1-462)
# T3 sequence (P04625 1-408 partner): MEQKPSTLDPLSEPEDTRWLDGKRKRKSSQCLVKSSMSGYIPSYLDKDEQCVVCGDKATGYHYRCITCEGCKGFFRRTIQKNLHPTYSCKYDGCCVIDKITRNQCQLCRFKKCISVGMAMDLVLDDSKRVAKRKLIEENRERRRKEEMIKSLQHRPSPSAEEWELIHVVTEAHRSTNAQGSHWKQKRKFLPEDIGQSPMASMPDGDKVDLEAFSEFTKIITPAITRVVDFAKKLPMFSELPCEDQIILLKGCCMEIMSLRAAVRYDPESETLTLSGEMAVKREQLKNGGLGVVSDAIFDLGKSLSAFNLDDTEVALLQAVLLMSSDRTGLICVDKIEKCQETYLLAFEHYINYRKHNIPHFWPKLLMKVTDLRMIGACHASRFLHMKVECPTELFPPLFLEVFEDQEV
structure (smiles),measurement,setting,value
"CC=C(c1ccc(C(=O)O)cc1)c1cc2c(cc1C)C(C)(C)CCC2(C)C [LG69, 4-{1-(3,5,5,8,8-pentamethyl-5,6,7,8-tetrahydro-2-napthalenyl)-1-propenyl}benzoic acid]",effect of LG69 added to T3 on the response to T3,[1]; 100 nM T3+100 nM LG69 versus T3 alone,somewhat reduced
same,responsiveness of transfected cells to ligand (luciferase fold-activation),"[1]; CV-1 cells transfected with T3Rβ and RXRα, 100 nM T3 or 100 nM LG69",not responsive
same,activity of T3+LG69 compared with T3 alone,[2]; 100 nM T3+100 nM LG69,slightly less activity
same,fold response to LG69,"[2]; GAL-RXR+T3R LBD (unliganded), 100 nM LG69",57 fold
same,change in [3H] LG69 binding,[3]; T3R with 1 μM T3 added,strongly diminished
same,change in [3H] LG69 binding,[3]; unliganded T3R,modest reduction
